Measurements reported in ChEMBL document CHEMBL5050849 (2020).

Target: Ubiquitin carboxyl-terminal hydrolase 9X (Homo sapiens, UniProt Q93008)
Assay: Inhibition of USP9X (unknown origin) using Ubiquitin-Rhoadmine 110 as substrate preincubated for 30 mins followed by substrate addition and measured after 11 mins by fluorescence assay
Type: single protein

Sequence of Ubiquitin carboxyl-terminal hydrolase 9X (Q93008 whole entry): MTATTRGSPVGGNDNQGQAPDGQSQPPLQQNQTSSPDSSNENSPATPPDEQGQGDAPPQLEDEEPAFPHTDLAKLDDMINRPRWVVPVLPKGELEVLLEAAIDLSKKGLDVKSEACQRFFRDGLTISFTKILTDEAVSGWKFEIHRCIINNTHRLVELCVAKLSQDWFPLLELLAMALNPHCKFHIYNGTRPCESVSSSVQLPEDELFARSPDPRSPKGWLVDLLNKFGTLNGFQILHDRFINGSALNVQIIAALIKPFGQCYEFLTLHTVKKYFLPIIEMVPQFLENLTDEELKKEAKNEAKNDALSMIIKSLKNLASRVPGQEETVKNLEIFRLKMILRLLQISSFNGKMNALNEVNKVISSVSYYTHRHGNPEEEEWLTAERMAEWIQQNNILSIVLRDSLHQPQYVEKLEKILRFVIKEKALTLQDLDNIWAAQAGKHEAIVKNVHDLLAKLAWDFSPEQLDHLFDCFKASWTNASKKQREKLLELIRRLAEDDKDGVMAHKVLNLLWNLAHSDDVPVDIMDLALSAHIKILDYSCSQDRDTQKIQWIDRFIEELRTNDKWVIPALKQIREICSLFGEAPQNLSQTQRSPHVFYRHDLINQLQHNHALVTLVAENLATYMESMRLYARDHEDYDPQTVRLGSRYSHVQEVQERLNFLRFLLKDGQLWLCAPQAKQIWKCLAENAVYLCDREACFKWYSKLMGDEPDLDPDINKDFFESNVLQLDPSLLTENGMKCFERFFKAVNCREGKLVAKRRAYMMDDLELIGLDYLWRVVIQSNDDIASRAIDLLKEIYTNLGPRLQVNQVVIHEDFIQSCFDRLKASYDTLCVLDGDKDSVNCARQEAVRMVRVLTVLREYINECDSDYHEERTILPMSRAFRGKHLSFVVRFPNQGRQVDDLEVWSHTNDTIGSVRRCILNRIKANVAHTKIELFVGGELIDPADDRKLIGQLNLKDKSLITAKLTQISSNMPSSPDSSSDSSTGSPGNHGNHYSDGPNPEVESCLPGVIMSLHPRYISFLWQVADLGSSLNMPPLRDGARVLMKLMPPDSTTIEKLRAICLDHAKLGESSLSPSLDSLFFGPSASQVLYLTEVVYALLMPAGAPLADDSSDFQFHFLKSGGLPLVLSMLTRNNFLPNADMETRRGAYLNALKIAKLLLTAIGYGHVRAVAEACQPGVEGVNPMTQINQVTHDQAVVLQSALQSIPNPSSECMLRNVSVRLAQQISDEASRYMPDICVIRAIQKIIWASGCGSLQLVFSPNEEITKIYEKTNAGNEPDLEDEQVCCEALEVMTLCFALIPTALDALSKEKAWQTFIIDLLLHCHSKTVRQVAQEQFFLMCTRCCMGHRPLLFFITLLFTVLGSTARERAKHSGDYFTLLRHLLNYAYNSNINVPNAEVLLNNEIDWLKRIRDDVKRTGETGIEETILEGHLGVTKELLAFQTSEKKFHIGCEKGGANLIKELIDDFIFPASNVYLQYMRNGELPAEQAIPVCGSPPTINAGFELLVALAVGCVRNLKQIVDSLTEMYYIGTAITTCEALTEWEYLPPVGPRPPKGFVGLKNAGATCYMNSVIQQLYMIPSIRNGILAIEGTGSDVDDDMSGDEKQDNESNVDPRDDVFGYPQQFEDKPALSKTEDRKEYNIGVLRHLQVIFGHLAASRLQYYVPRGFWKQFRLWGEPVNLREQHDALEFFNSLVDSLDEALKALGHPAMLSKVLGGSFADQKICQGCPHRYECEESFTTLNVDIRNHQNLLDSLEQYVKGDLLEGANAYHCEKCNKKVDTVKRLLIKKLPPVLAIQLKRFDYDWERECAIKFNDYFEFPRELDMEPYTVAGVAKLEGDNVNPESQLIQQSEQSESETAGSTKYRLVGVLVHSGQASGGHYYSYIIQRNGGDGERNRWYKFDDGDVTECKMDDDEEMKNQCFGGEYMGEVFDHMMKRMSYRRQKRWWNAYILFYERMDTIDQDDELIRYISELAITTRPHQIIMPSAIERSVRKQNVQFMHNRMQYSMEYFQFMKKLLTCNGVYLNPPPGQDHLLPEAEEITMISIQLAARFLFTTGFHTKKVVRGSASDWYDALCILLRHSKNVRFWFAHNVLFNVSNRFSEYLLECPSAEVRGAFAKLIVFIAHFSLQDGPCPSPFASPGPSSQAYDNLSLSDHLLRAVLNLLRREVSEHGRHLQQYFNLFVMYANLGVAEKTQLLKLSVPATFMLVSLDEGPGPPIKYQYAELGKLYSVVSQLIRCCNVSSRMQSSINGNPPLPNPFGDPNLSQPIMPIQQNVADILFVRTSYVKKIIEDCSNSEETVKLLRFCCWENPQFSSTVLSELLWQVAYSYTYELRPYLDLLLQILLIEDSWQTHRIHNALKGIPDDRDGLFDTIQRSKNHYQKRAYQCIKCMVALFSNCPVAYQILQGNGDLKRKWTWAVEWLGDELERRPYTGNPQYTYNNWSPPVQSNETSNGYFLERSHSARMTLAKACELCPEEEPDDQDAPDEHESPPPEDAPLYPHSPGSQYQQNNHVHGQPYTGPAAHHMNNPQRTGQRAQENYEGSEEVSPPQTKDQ

IC50, > 25 µM:
O=S(=O)(c1ccc(-n2ccnc2)cc1)N1Cc2cnc(C(O)c3ccccc3)cc2C1 (centres undefined)
O=C(c1cccc(Cl)c1)c1cc2c(cn1)CN(S(=O)(=O)c1ccc3c(c1)OCCO3)C2
COc1ccc(S(=O)(=O)N2CCc3nn(C(=O)[C@@H](O)c4ccccc4)cc3C2)cc1O
OC(c1ccccc1)c1cc2c(cn1)CN(Cc1ccc3c(c1)OCCO3)C2 (centres undefined)
O=S(=O)(C1CCN(c2nccs2)CC1)N1Cc2cnc(C(O)c3ccccc3)cc2C1 (centres undefined)
O=S(=O)(C1CCN(c2ncco2)CC1)N1Cc2cnc(C(O)c3ccccc3)cc2C1 (centres undefined)
O=S(=O)(c1ccccc1)c1cc2c(cn1)CN(S(=O)(=O)c1ccc(-c3ncco3)cc1)C2
C[C@@H](c1ccccc1)N1Cc2cc(S(=O)(=O)c3ccc4c(c3)OCCO4)ccc2C1=O
O=C([C@@H](O)c1ccccc1)N1CCc2c(cnn2S(=O)(=O)c2ccc3c(c2)OCCO3)C1
